Measured values from US20030092077A1, “Human sperm activator peptides” (priority 2001, published 2003).

Tests used:
human sperm [1] = test: Sperm chemotaxis assay with phage displaying the peptide (two-chamber apparatus); type: cell-based; details: 37° C. for 1 hr; for sperm count in the lower chamber: one experiment done in triplicate, phage displaying peptide
Protocol: (§1) Preparation of sperm: One tube (0.5 ml) of a sperm sample was thawed at room temperature for 15-20 mm. As soon as the sperm was thawed, 0.5 ml of Hams-F10 medium was added, and the sample transferred to a 5 ml culture tube. The sperm was diluted to 4 ml with Hams-F10 medium, mixed well, and centrifuged at 2000 rpm for 5 mm. The supernatant was decanted and the cells resuspended in 4 ml of fresh Hams-F 10 medium. The centrifugation was repeated and the clean sperm pellet resuspended in 1 ml Hams-F10 medium. A 50 μl sample aliquot was used per each assay condition.
Assay: The chambers of the assay apparatus were assembled with 8.iM membranes pre-wetted with Hams-F10 medium. A sample of phage containing a specific peptide sequence or a control peptide sequence was diluted with Hams-F10 medium to give a 100 ml phage containing solution which was placed in the bottom chamber of the apparatus. A sperm sample having at least 1×10^6 sperm was added to the upper chamber. After incubation 37° C. for 1 hr, the sample in the bottom chamber was collected into microfuge tubes and centrifuged at 6000 rpm for 5 mm. The supernatant was removed and the pellet resuspended in suitable volume to be counted in a hemocytometer.
Results: Various concentrations of phage containing the Husap peptide (TMGFTAPRFPHY; SEQ. ID. NO. 1), phage containing a control sequence (KSLSRHDHIHHH; SEQ. ID. NO. 20) or buffer without phage were used in the assays. Sperm counts 2-15 fold greater in the well containing the Husap peptide displaying phage were consistently obtained when compared to control phage or buffer-alone chambers. For example, in one experiment done in triplicate, the sperm count in the lower chamber was 76×10^4 for the Husap peptide compared to 5×10^4 for the control peptide and 21×10^4 for buffer alone.

human sperm [2] = test: Effect of varying concentrations of Husap peptide on chemotaxis of human sperm; type: cell-based; details: 2.8×10^6 sperm in upper chamber, 5 micron membrane, 37° C. 1 h
Protocol: as §1
The effect of varying concentrations of the Husap peptide on chemotaxis of human sperm was also determined. Sperm at a concentration of 2.8×10^6 were added to the upper chamber. The peptide concentration in the lower chamber was varied from 0 μl to […] of peptide. Sperm were separated from the lower chamber by a 5 micron membrane filter. The chambers were incubated at 37° C. for 1 h. At the end of the incubation, sperm were collected from the lower chamber and counted in a hemocytometer. The experiment was performed several times with varying peptide concentrations and with 5 and 8 micron membranes.

## KSLSRHDHIHHH [control peptide, reference compound]
Human sperm [1]
  sperm count in the lower chamber: 5×10^4

## NH2-Thr-Met-Gly-Phe-Thr-Ala-Pro-Arg-Phe-Pro-His-Tyr-COOH (H-TMGFTAPRFPHY-OH; listed as Homo sapiens) [Husap peptide, human sperm chemotactic peptide …]
Human sperm [1]
  sperm count in the lower chamber: 76×10^4
Human sperm [1]; phage displaying peptide in bottom chamber, various phage concentrations
  Sperm counts, fold greater compared to control phage or buffer-alone chambers: 2-15 fold
Human sperm [2]; HusaP concentration 10 uM
  Sperm Count in Lower Chamber: 6 × 10^4
Human sperm [2]; HusaP concentration 20 uM
  Sperm Count in Lower Chamber: 12 × 10^4
Human sperm [2]; HusaP concentration 100 uM
  Sperm Count in Lower Chamber: 52 × 10^4
